Assay results as given in ChEMBL document CHEMBL2157937, “Discovery and optimization of C-2 methyl imidazopyrrolopyridines as potent and orally bioavailable JAK1 inhibitors with selectivity over JAK2” (J Med Chem, 2012).
≈ marks a conversion by molar mass, not a printed value. Blank lines part the entries; values can stand above or below the compound they belong to.

Key:
[1] = in vitro; details: Sprague-Dawley, rat, hepatocytes
[2] = physchem; details: buffer, pH 7.4
[3] = in vivo; details: Sprague-Dawley, rat, plasma, po, 2 mg/kg
[4] = organism: Rattus norvegicus; details: in vivo, po, 2 mg/kg
[5] = in vivo; details: Sprague-Dawley, rat, iv, 0.4 mg/kg
[6] = physchem; details: octanol/PBS buffer, pH 7.2
[7] = in vitro; details: human, hepatocytes
[8] = in vivo; details: Sprague-Dawley, rat, po, 0.4 mg/kg
[9] = physchem; details: buffer, pH 2
[10] = in vivo; details: Sprague-Dawley, rat, po, 2 mg/kg
[11] = in vivo; details: rat, po, 2 mg/kg
[12] = Clearance in rat at 2 mg/kg, po; assay type: ADME, organism-based; parameters: dose 2 mg/kg, route oral; details: in vivo
[13] = AUC in rat at 2 mg/kg, po; assay type: ADME, organism-based; parameters: dose 2 mg/kg, route oral; details: plasma
[14] = in vivo; details: rat, po, 2 mg/kg; remark: listed apart in the source

half-life at 1 µM [1]: 1.6 h
solubility thermodynamic at 24 h [2]: > 1500 µM
AUC [3]: 5.3 µM·h
F [4]: 172%
clearance [5]: 40 mL/min/kg
logD at 1 h, 10000 µM [6]: 1.2
half-life at 1 µM [7]: 1.8 h
Cmax [8]: 4500 nM
Structure (SMILES): Cc1nc2cnc3[nH]ccc3c2n1[C@@H]1CCNC[C@H]1F (relative stereo)

logD at 1 h, 10000 µM [6]: 0.7
Structure (SMILES): Cc1nc2cnc3[nH]ccc3c2n1[C@@H]1CCNC[C@@H]1F (relative stereo)

logD at 1 h, 10000 µM [6]: 1.4
half-life at 1 µM [7]: > 8 h
Structure (SMILES): Cc1nc2cnc3[nH]ccc3c2n1[C@H]1CC[C@@H](O)CC1

solubility thermodynamic at 24 h [9]: > 5000 µM
bioavailability [10]: 4%
half-life at 1 µM [1]: > 8 h
solubility thermodynamic at 24 h [2]: > 1500 µM
AUC [3]: 0.12 µM·h
clearance [5]: 43 mL/min/kg
logD at 1 h, 10000 µM [6]: 0.1
half-life at 1 µM [7]: > 8 h
Cmax [8]: 60 nM
Structure (SMILES): Cc1nc2cnc3[nH]ccc3c2n1C1CCNCC1

logD at 1 h, 10000 µM [6]: 1.8
half-life at 1 µM [7]: 6.3 h
Structure (SMILES): Cc1nc2cnc3[nH]ccc3c2n1[C@H]1CCCOC1

logD at 1 h, 10000 µM [6]: 0.6
half-life at 1 µM [7]: > 8 h
Structure (SMILES): Cc1nc2cnc3[nH]ccc3c2n1[C@H]1CCCNC1

logD at 1 h, 10000 µM [6]: 1.4
half-life at 1 µM [7]: > 8 h
Structure (SMILES): Cc1nc2cnc3[nH]ccc3c2n1[C@H]1CC[C@H](O)CC1

logD at 1 h, 10000 µM [6]: 1.6
half-life at 1 µM [7]: > 8 h
Structure (SMILES): Cc1nc2cnc3[nH]ccc3c2n1[C@@H]1CCCC[C@H]1O (relative stereo)

Further lines, the compound ahead of its results:

Structure (SMILES): Cc1nc2cnc3[nH]ccc3c2n1C1CCN(CCC#N)CC1
logD at 1 h, 10000 µM [6]: 1.3
half-life at 1 µM [7]: > 8 h

Structure (SMILES): CC(=O)N[C@H]1CC[C@H](n2c(C)nc3cnc4[nH]ccc4c32)CC1
logD at 1 h, 10000 µM [6]: 1.1

Structure (SMILES): Cc1nc2cnc3[nH]ccc3c2n1[C@H]1CC[C@H](NS(C)(=O)=O)CC1
logD at 1 h, 10000 µM [6]: 1.2
half-life at 1 µM [7]: > 8 h

Structure (SMILES): COC(=O)N[C@H]1CC[C@H](n2c(C)nc3cnc4[nH]ccc4c32)CC1
solubility thermodynamic at 24 h [9]: 2300 µM (≈ 753 µg/mL)
bioavailability [10]: 54%
half-life at 1 µM [1]: 3.5 h
solubility thermodynamic at 24 h [2]: 40 µM (≈ 13.1 µg/mL)
AUC [3]: 1.4 µM·h
clearance [5]: 40 mL/min/kg
logD at 1 h, 10000 µM [6]: 2
half-life at 1 µM [7]: 3.9 h
Cmax [8]: 550 nM

Structure (SMILES): C[C@@H]1CCN(C(=O)CC#N)C[C@@H]1N(C)c1ncnc2[nH]ccc12 [TOFACITINIB]
Cmax [11]: 1700 nM
CL/F [12]: 43 mL/min/kg
AUC [13]: 2.1 µM·h
bioavailability [14]: 87%

Structure (SMILES): Cc1nc2cnc3[nH]ccc3c2n1[C@H]1CC[C@H](NCCC#N)CC1
solubility thermodynamic at 24 h [9]: > 5000 µM
bioavailability [10]: 13%
half-life at 1 µM [1]: > 8 h
solubility thermodynamic at 24 h [2]: > 1500 µM
AUC [3]: 0.18 µM·h
clearance [5]: 80 mL/min/kg
logD at 1 h, 10000 µM [6]: 0.9
half-life at 1 µM [7]: > 8 h
Cmax [8]: 150 nM
